Laboratory results: patent US20240382483A1, “HETEROCYCLIC EGFR INHIBITORS FOR USE IN THE TREATMENT OF CANCER” (Blueprint Medicines Corporation, priority 2021, published 2024)

Experiments:
EGFR (L858R T790M C797S) = target: T1, EGFR (L858R T790M C797S) (Homo sapiens, UniProt P00533, C797S/L858R/T790M); assay: Biochemical EGFR inhibition assay (Caliper mobility shift), EGFR LRTMCS; settings: LRTMCS (PH) IC50 (nM) @ 1 mM ATP (Num), EGFR LRTMCS mutant
T1 construct: purchased SignalChem E10-122VG
How it was run: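 Each enzyme was allowed to phosphorylate 10–20% of its peptide at 25° C. before EDTA (35 mM) quench. Separated substrate and product peaks were measured by mobility shift, giving apparent IC50 values.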

[1] = target: T2, intracellular phosphorylation of EGFR in NCI-H1975 cell line that harbors the EGFR L858R T790M mutations (Homo sapiens, UniProt P00533, L858R/T790M); assay: NCI-H1975 pEGFR AlphaLISA assay; assay type: cell-based; settings: NCI-H1975 cells (EGFR L858R T790M), p-EGFR (Tyr1068), 4-5 hours incubation; read-out: Ext pEGFR H1975 GMean IC50 (nM) Protocol: @Pharmaron AlphaLISA (Num)
T2 construct: NCI-H1975 cell line that harbors the EGFR L858R T790M mutations (ATCC, CRL-5908); host or cells: NCI-H1975
T2 sequence (P00533 25-1210 T790M/L858R): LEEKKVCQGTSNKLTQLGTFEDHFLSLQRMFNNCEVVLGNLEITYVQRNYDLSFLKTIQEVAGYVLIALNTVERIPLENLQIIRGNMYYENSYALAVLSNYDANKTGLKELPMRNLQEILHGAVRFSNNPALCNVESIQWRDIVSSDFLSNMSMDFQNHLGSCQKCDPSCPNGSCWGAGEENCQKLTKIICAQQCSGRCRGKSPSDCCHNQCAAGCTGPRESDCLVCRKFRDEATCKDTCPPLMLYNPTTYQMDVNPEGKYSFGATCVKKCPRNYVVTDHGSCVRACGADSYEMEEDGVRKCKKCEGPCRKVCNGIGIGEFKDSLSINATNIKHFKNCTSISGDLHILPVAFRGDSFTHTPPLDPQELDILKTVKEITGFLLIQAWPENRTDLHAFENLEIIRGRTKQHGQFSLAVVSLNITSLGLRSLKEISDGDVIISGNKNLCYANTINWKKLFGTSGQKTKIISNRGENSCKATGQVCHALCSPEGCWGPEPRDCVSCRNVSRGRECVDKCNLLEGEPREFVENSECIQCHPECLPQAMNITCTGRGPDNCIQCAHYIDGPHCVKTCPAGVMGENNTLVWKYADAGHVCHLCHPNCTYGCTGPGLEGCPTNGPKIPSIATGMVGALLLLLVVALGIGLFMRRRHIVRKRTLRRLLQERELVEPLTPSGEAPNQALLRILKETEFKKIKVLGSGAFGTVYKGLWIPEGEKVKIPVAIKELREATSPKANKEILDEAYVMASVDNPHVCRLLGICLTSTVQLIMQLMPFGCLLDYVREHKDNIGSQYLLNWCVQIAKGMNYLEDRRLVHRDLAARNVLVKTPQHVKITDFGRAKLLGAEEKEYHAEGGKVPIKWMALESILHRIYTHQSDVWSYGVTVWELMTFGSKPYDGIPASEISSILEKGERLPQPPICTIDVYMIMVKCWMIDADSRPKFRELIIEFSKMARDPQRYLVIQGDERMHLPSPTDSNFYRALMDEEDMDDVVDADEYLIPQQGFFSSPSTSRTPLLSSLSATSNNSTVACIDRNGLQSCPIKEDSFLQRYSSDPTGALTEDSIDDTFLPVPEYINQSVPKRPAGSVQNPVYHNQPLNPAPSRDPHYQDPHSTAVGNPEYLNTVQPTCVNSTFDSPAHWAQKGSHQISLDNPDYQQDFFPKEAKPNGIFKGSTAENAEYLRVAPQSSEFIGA
Description: On the next day, the test compounds and DMSO control were added into H1975 cell plate followed by incubation at 37C/5% CO2 for 4-5 hours. […] Then 5 μL of a donor bead mix was added to each well followed by overnight incubation at room temperature in dark. On the next day, the plate was read at a compatible plate reader to obtain pEGFR signal. Percent of pEGFR inhibition was plotted against log concentration of compounds to generate IC50 values.

T1 sequence (P00533 25-1210 T790M/C797S/L858R): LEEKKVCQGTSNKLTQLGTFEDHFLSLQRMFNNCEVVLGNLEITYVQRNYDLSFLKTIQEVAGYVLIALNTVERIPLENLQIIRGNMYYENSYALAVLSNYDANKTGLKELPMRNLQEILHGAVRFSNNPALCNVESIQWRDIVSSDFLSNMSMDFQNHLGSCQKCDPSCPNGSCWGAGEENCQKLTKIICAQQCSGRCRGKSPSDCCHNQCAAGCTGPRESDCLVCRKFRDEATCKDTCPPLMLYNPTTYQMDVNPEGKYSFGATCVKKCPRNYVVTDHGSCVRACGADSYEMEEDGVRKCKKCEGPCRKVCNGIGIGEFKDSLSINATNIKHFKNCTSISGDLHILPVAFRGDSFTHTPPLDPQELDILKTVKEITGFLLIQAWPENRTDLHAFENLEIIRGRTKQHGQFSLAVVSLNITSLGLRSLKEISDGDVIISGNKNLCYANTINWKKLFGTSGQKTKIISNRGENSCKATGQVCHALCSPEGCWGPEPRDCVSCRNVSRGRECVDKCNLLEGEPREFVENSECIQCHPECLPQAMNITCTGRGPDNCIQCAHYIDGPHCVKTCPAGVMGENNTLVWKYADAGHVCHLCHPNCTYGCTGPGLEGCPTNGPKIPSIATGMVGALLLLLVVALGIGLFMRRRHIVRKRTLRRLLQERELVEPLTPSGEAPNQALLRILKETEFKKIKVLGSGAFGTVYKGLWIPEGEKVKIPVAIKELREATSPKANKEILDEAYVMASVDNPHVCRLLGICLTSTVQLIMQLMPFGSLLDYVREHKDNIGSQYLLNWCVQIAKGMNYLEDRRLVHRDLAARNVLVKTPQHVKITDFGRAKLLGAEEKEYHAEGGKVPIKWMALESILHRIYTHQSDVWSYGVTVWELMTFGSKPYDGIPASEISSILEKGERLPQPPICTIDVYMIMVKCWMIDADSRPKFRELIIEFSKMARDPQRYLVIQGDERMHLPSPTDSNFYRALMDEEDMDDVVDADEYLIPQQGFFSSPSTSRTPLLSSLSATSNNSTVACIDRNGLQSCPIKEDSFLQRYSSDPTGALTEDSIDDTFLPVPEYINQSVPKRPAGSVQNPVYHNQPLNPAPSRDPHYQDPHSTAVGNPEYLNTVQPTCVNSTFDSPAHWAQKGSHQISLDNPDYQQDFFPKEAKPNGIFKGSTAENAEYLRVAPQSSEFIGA

IC50 (EGFR (L858R T790M C797S)) [nM]	IC50 [1] [nM]	Structure (SMILES)
15 to 20	> 50	CO[C@@H]1CCN(c2nccc(Nc3cc4c(C(C)C)ccc(N5C[C@H](O)[C@H]5C)c4cn3)n2)C[C@@H]1O (single isomer, unassigned) [Example 123, (3S,4R)-1-(4-((8-((2R,3S)-3-hydroxy-2-methylazetidin-1-yl)-5-isopropylisoquinolin-3-yl)amino)pyrimidin-2-yl)-4-methoxypiperidin-3-ol-ol or (3R,4S)-1-(4-((8-((2R,3S)-3-hydroxy-2-methylazetidin-1-yl)-5-isopropylisoquinolin-3-yl)amino)pyrimidin-2-yl)-4-methoxypiperidin-3-ol]
20 to 30	> 50	CC(C)c1cnc(N2CC(C)(O)C2)c2cnc(Nc3ccnc(N4CC[C@@H](O)[C@@](C)(F)C4)n3)cc12 [Example 50, (3S,4R)-3-fluoro-1-(4-((8-(3-hydroxy-3-methylazetidin-1-yl)-5-isopropyl-2,7-naphthyridin-3-yl)amino)pyrimidin-2-yl)-3-methylpiperidin-4-ol]
< 15	> 50	CC(C)c1cnc(N2CC3(CCS3(=O)=O)C2)c2cnc(Nc3ccnc(N4CC[C@@](C)(O)[C@@H](F)C4)n3)cc12 (single isomer, unassigned) [Example 175, 6-(6-((2-((3S,4R)-3-fluoro-4-hydroxy-4-methylpiperidin-1-yl)pyrimidin-4-yl)amino)-4-isopropyl-2,7-naphthyridin-1-yl)-1-thia-6-azaspiro[3.3]heptane 1,1-dioxide or 6-(6-((2-((3R,4S)-3-fluoro-4-hydroxy-4-methylpiperidin-1-yl)pyrimidin-4-yl)amino)-4-isopropyl-2,7-naphthyridin-1-yl)-1-thia-6-azaspiro[3.3]heptane 1,1-dioxide]
< 15	30 to 50	CO[C@@H]1CCN(c2nccc(Nc3cc4c(C(C)C)cnc(N5CC6(CCS6(=O)=O)C5)c4cn3)n2)C[C@@H]1O (single isomer, unassigned) [Example 124, 6-(6-((2-((3S,4R)-3-hydroxy-4-methoxypiperidin-1-yl)pyrimidin-4-yl)amino)-4-isopropyl-2,7-naphthyridin-1-yl)-1-thia-6-azaspiro[3.3]heptane 1,1-dioxide or 6-(6-((2-((3R,4S)-3-hydroxy-4-methoxypiperidin-1-yl)pyrimidin-4-yl)amino)-4-isopropyl-2,7-naphthyridin-1-yl)-1-thia-6-azaspiro[3.3]heptane 1,1-dioxide]
< 15	< 10	CO[C@@H]1CCN(c2nccc(Nc3cc4c(C(C)C)cnc(N5C[C@H](OCCO)[C@H]5C)c4cn3)n2)C[C@@H]1F [Example 148, 2-(((2R,3S)-1-(6-((2-((3S,4R)-3-fluoro-4-methoxypiperidin-1-yl)pyrimidin-4-yl)amino)-4-isopropyl-2,7-naphthyridin-1-yl)-2-methylazetidin-3-yl)oxy)ethan-1-ol]
< 15	20 to 30	CC(C)c1cnc(N2CC(F)C2)c2cnc(Nc3ccnc(N4CC[C@@H](O)[C@@](C)(F)C4)n3)cc12 [Example 47, (3S,4R)-3-fluoro-1-(4-((8-(3-fluoroazetidin-1-yl)-5-isopropyl-2,7-naphthyridin-3-yl)amino)pyrimidin-2-yl)-3-methylpiperidin-4-ol]
< 15	< 10	CC(C)c1cnc(N2CC[C@H]2C)c2cnc(Nc3ccnc(N4CC[C@H](OCCO)[C@H](F)C4)n3)cc12 [Example 141, 2-(((3R,4S)-3-fluoro-1-(4-((5-isopropyl-8-((R)-2-methylazetidin-1-yl)-2,7-naphthyridin-3-yl)amino)pyrimidin-2-yl)piperidin-4-yl)oxy)ethan-1-ol]
20 to 30	> 50	C[C@@H]1[C@@H](O)CN1c1ncc(C2CC2)c2cc(Nc3ccnc(N4CC[C@@H](O)[C@@](C)(F)C4)n3)ncc12 [Example 102, (3S,4R)-1-(4-((5-cyclopropyl-8-((2R,3S)-3-hydroxy-2-methylazetidin-1-yl)-2,7-naphthyridin-3-yl)amino)pyrimidin-2-yl)-3-fluoro-3-methylpiperidin-4-ol]
< 15	20 to 30	CC(C)c1ncc(N2CC[C@H]2C)c2cnc(Nc3ccnc(N4CC[C@@H](O)[C@@](C)(F)C4)n3)cc12 [Example 106, (3S,4R)-3-fluoro-1-(4-((5-isopropyl-8-((R)-2-methylazetidin-1-yl)-2,6-naphthyridin-3-yl)amino)pyrimidin-2-yl)-3-methylpiperidin-4-ol]
< 15	20 to 30	CC(C)c1cnc(N2CCC23COC3)c2cnc(Nc3ccnc(N4CC[C@@H](O)[C@@](C)(F)C4)n3)cc12 [Example 53, (3S,4R)-3-fluoro-1-(4-((5-isopropyl-8-(6-oxa-1-azaspiro[3.3]heptan-1-yl)-2,7-naphthyridin-3-yl)amino)pyrimidin-2-yl)-3-methylpiperidin-4-ol]
< 15	10 to 20	CC(C)c1cnc(N2C[C@@H](F)[C@H](F)C2)c2cnc(Nc3ccnc(N4CC[C@@H](O)[C@@](C)(F)C4)n3)cc12 (single isomer, unassigned) [Example 60, (3S,4R)-1-(4-((8-((3R,4R)-3,4-difluoropyrrolidin-1-yl)-5-isopropyl-2,7-naphthyridin-3-yl)amino)pyrimidin-2-yl)-3-fluoro-3-methylpiperidin-4-ol or (3S,4R)-1-(4-((8-((3S,4S)-3,4-difluoropyrrolidin-1-yl)-5-isopropyl-2,7-naphthyridin-3-yl)amino)pyrimidin-2-yl)-3-fluoro-3-methylpiperidin-4-ol]
< 15	10 to 20	CC(C)c1cnc(N2CC[C@@H]2C)c2cnc(Nc3ccnc(N4CC[C@@H](O)[C@@H](F)C4)n3)cc12 (single isomer, unassigned) [Example 159, (3S,4R)-3-fluoro-1-(4-((5-isopropyl-8-((S)-2-methylazetidin-1-yl)-2,7-naphthyridin-3-yl)amino)pyrimidin-2-yl)piperidin-4-ol or (3S,4R)-3-fluoro-1-(4-((5-isopropyl-8-((R)-2-methylazetidin-1-yl)-2,7-naphthyridin-3-yl)amino)pyrimidin-2-yl)piperidin-4-ol]
15 to 20	> 50	CC(C)c1cnc(N2CC(O)(CC#N)C2)c2cnc(Nc3ccnc(N4CC[C@@H](O)[C@@](C)(F)C4)n3)cc12 [Example 72, 2-(1-(6-((2-((3S,4R)-3-fluoro-4-hydroxy-3-methylpiperidin-1-yl)pyrimidin-4-yl)amino)-4-isopropyl-2,7-naphthyridin-1-yl)-3-hydroxyazetidin-3-yl)acetonitrile]
15 to 20	30 to 50	CC(C)c1cnc(N2CC(F)(C(=O)N(C)C)C2)c2cnc(Nc3ccnc(N4CC[C@@H](O)[C@@](C)(F)C4)n3)cc12 [Example 92, 3-fluoro-1-(6-((2-((3S,4R)-3-fluoro-4-hydroxy-3-methylpiperidin-1-yl)pyrimidin-4-yl)amino)-4-isopropyl-2,7-naphthyridin-1-yl)-N,N-dimethylazetidine-3-carboxamide]
15 to 20	> 50	CC(C)c1cnc(N2CC(N3CCCC3=O)C2)c2cnc(Nc3ccnc(N4CC[C@@H](O)[C@@](C)(F)C4)n3)cc12 [Example 91, 1-(1-(6-((2-((3S,4R)-3-fluoro-4-hydroxy-3-methylpiperidin-1-yl)pyrimidin-4-yl)amino)-4-isopropyl-2,7-naphthyridin-1-yl)azetidin-3-yl)pyrrolidin-2-one]
< 15	< 10	CC(C)c1ccc([C@H]2C[C@H](CS(C)(=O)=O)C2)c2cnc(Nc3ccnc(N4CC[C@@H](O)[C@@](C)(F)C4)n3)cc12 [Example 1, (3S,4R)-3-fluoro-1-(4-((5-isopropyl-8-((1r,3S)-3-((methylsulfonyl)methyl)cyclobutyl)isoquinolin-3-yl)amino)pyrimidin-2-yl)-3-methylpiperidin-4-ol]
< 15	> 50	CO[C@H]1CCN(c2nccc(Nc3cc4c(C(C)C)ccc(N5CC[C@H]5CN)c4cn3)n2)C[C@H]1F [Example 39, 8-((S)-2-(aminomethyl)azetidin-1-yl)-N-(2-((3R,4S)-3-fluoro-4-methoxypiperidin-1-yl)pyrimidin-4-yl)-5-isopropylisoquinolin-3-amine]
< 15	20 to 30	C[C@H](CO)c1cnc(N2CC[C@H]2C)c2cnc(Nc3ccnc(N4C[C@@H](F)[C@@H](O)C(C)(C)C4)n3)cc12 (single isomer, unassigned) [Example 188]
15 to 20	30 to 50	CC(C)c1ncc(N2CC(F)C2)c2cnc(Nc3ccnc(N4CC[C@@H](O)[C@@](C)(F)C4)n3)cc12 [Example 49, (3S,4R)-3-fluoro-1-(4-((8-(3-fluoroazetidin-1-yl)-5-isopropyl-2,6-naphthyridin-3-yl)amino)pyrimidin-2-yl)-3-methylpiperidin-4-ol]
< 15	30 to 50	CC(C)c1cnc(N2CC(C3COC3)C2)c2cnc(Nc3ccnc(N4CC[C@@H](O)[C@@](C)(F)C4)n3)cc12 [Example 101, (3S,4R)-3-fluoro-1-(4-((5-isopropyl-8-(3-(oxetan-3-yl)azetidin-1-yl)-2,7-naphthyridin-3-yl)amino)pyrimidin-2-yl)-3-methylpiperidin-4-ol]
